Measured values published in a melting point compilation (Tetko et al.; mined from patent text by program, amines drawn as free bases though some values may be those of a salt).

Row | melting point [°C] | SMILES
1 | 67 to 68 | CCOc1cnc(-c2cc(Cl)c(OC)c3ccccc23)s1
2 | 50 to 55 | CCOCCn1c(C(=O)C2CCN(CCC3(c4ccccn4)CCN(C(=O)c4cc(OC)c(OC)c(OC)c4)C3)CC2)nc2ccccc21 (centres undefined)
3 | 224 | CCN(c1ccc(N2CCN(c3ccc(OC)cc3)CC2)cc1)c1nc(-c2ccccc2)cs1
4 | 237 to 238 | CNc1cc(N2CCN(C(=O)C3CCN(S(=O)(=O)c4ccc(C(F)(F)F)cc4)CC3)CC2)ncn1
5 | 90 to 95 | Cc1nc(-c2cccc(CN3C(=O)C4(COc5cc6c(cc54)OCCO6)c4ccccc43)c2)no1 (centres undefined)
6 | 166 | CN1CCN(C(=O)OC2C3=C(SCCS3)C(=O)N2c2ccccc2)CC1 (centres undefined)
7 | > 300 | Cc1cc(NC(=O)NN(c2ccccc2)c2cccc(C(=N)N)c2)ccc1N1CCCCC1=O
8 | 120 to 122 | O=C(O)c1nc(N2CCCC2)ccc1OCc1ccccc1
9 | 153 | CC(c1ccccc1)N1CC2Cc3cc4ccccc4n3CC2C1 (centres undefined)
10 | 190 to 192 | O=c1[nH]c(SCCCN2CCN(c3ccccn3)CC2)nc2sc3c(c12)CCCC3
11 | 167 to 170 | COCn1c(-c2nc3c(OC)ccc(N4CCOCC4)c3s2)nc2ccc(Cl)nc21
12 | 221 to 222 | CC(C)(C)c1cc(C(=O)N2CCN(c3ccc(N)cc3)CC2)cc(C(C)(C)C)c1O
13 | 142 to 144 | COc1ccc(N2CCN(c3c(C)c(C)c4c(c3C)CC(C)O4)CC2)c(OC)c1 (centres undefined)
14 | 172 to 178 | N#Cc1ccc(OCc2ccc3ncoc3c2)cc1OC(C(=O)O)c1ccccc1Cl (racemic)
15 | 205 to 208 | COc1ccc(CNc2nc(N3CCC[C@H]3CO)ncc2C(=O)O)cc1Cl
16 | 270 to 271 | O=C(Nc1cccnn1)N1CCN(c2nccc(-c3cc(F)cc(F)c3)n2)CC1
17 | 289 to 290 | COC(=O)C1=C(C)Nc2nc[nH]c(=O)c2C1c1cccc([N+](=O)[O-])c1 (centres undefined)
18 | 62 to 63.5 | COc1ccc(C(C)CC(=O)N2C(=O)OCC2C(C)C)cc1 (centres undefined)
19 | 205 to 209 | CCCCOCCOc1ccc(-c2cc3c4c(c2)OCCN4CCCC(C(=O)O)=C3)cc1
20 | 163 to 165 | CCOc1cc2ncc(C#N)c(NCc3ccc(Cl)c(Cl)c3)c2cc1OCC
21 | 159 to 161 | C=CCc1cc(CN2C(=O)CCc3c2ccc(O)c3CC=C)cc(OC)c1O
22 | 199 | COc1cccc(OC)c1NC(=O)c1ccc2nc(N[C@@H]3CCc4ccccc43)ccc2c1
23 | 58 to 66 | COc1cccc(C(c2cccc(OC)c2)C(Nc2nc(OC)cc(OC)n2)C(=O)O)c1 (centres undefined)
24 | 148 to 151 | Clc1ccc2c(c1)N=C(N1CCN(CC3CC3)CC1)c1ccccc1N2
25 | 90 | COc1ccc(C2CCCCC2=O)cc1 (centres undefined)
26 | 43 to 44 | C=CCc1cc(C=C(C(=O)OCC)C(=O)OCC)cc(OC)c1OC
27 | 191 to 192 | O=C(O)CC1CCCN(C(=O)c2ccc(N3CCCC3)cc2Cl)c2ccccc21 (centres undefined)
28 | 175 to 178 | COc1cc(OC(CCc2ccc(Cl)cc2)Cn2ccnc2)ccc1NC(C)=O (centres undefined)
29 | 293 to 294 | Cc1ccc(N2C(=O)C(O)=C(C(=O)c3ccc(C(C)C)cc3)C2c2ccc(N3CCOCC3)cc2)nn1 (centres undefined)
30 | 145 to 147 | O=C(C(=O)N1CCC(Oc2cccc(Cl)c2)CC1)c1c[nH]c2ccccc12

More lines, now with the values behind:

Row | SMILES | melting point [°C]
31 | CCSc1ccc(C(=O)NCc2ccc3c(c2)C(=O)N(C2CCC(=O)NC2=O)C3=O)nn1 (centres undefined) | 205 to 207
32 | COC(=O)Nc1cc(C)c(Br)cc1I | 140 to 141
33 | Nc1ccc(C2=NNC(=O)CC2)cc1[N+](=O)[O-] | > 330
34 | C=C1N(CC)C(=O)OC12CCN(CCC=C(c1ccc(F)cc1)c1ccc(F)cc1)CC2 | 138 to 139
35 | CC(C)(C)c1ccc(Cn2c(=O)n(Cc3ccc(C(C)(C)C)cc3)c3ccccc32)cc1 | 164 to 168
36 | CN(CC(=O)O)CC(=O)Nc1cc(Cc2n[nH]c(=O)c3ccccc23)ccc1F | 194 to 198
37 | CN1Cc2c(Cl)ncn2-c2cccc(Cl)c2C1=O | 211 to 212
38 | CCOC(=O)c1cccc(C#CC2(O)CN3CCC2CC3)c1 (centres undefined) | 155 to 156
39 | CN(Cc1cccc2c1CN(C1CCC(=O)NC1=O)C2=O)C(=O)Nc1cccc(C(F)(F)F)c1 (centres undefined) | 198 to 200
40 | OC(CCCN1CC=C(c2ncco2)CC1)c1ccc(F)cc1 (centres undefined) | 100 to 103
41 | Oc1cc2c(-c3ccc(Cl)cc3)csc2c(Cl)c1Cl | 174 to 176
42 | N#CC(Cl)Cc1ccc(Cl)cc1C(=O)c1ccccc1Cl (centres undefined) | 102 to 103
43 | O=C(O)CCn1cc(Cc2cccnc2)c2cc(NS(=O)(=O)c3ccc(F)cc3)ccc21 | 214 to 215
44 | O=C(Nc1cccc(Br)c1)Oc1ccc2ncccc2c1 | 260
45 | Cn1cc(C(N)=O)c(Cl)n1 | 164 to 166
46 | COCCOC(=O)C1=NNC(C)=C(C(=O)OC(C)C)C1c1cccc([N+](=O)[O-])c1 (centres undefined) | 165
47 | COC(=O)NN=Cc1ccc(Oc2ccc(F)cc2)cc1 | 109 to 111
48 | Cn1c(C(F)(F)F)cc2ccccc21 | 28 to 32
49 | CC12CCC3c4ccc(C(=O)O)cc4CCC3C1CCC2C(=O)C=Cc1ccccc1 (centres undefined) | 177 to 181
50 | O=C(O)CC1(c2ccc(Cl)cc2)CNC(=O)C1 (centres undefined) | 190 to 191
51 | O=C(Nc1ccc(N(CCCl)CCCl)cc1)Nc1cccc([N+](=O)[O-])c1 | 246 to 247
52 | COC(=O)C(=O)c1cn(C)c2cc(-c3ccc(C(F)(F)F)cc3)ccc12 | 199 to 200
53 | CC(C)(C)c1cc(-c2nnc(NN)s2)cc(C(C)(C)C)c1O | 109 to 122

Row | SMILES | melting point [°C]
54 | Nc1cc(-n2cccc2)ccc1Nc1cccc(-c2cncnc2)c1 | 190 to 192
55 | Cc1nnc2ccc(-c3cccc(CC(=O)NC(C)C)c3)nn12 | 197 to 200
56 | OCc1ccc(-c2ccccc2)cn1 | 86 to 87
57 | O=C(Nc1nc(C(Cl)(Cl)Cl)ns1)c1ccccc1F | 149
58 | COC(=O)c1cc(-c2ccc(OCc3ccccc3)cc2)c(=O)n2ccc3ccsc3c12 | 169 to 171
59 | CSC(c1ccc(Cl)cc1)c1ccc(Cl)cc1 | 56 to 57
60 | CC1C(=O)c2ccccc2C1NCCc1ccccc1 (centres undefined) | 82 to 83
61 | Cn1cnc2nc(-c3cc(Cl)c(Cl)cc3C(=O)O)nn2c1=S | 298 to 300
62 | CCCCOC(=O)c1ccc(Nc2ncc(C(=O)OCC)c(=O)[nH]2)cc1 | 281 to 283
63 | C[C@H]1O[C@@H](C(Cl)(Cl)Cl)OC(=O)[C@@H]1C | 128 to 130
64 | CC(C)(CCc1noc(=O)[nH]1)c1ccc(C(=O)Nc2cn3cc(C(F)(F)F)ccc3n2)cc1 | 268 to 270
65 | CC1(C)CC(=O)C(C(=O)Nc2cccc(C(F)(F)F)c2)C(=O)C1 | 116 to 117
66 | Fc1ccc(-c2n[nH]cc2-c2ccnc(Nc3ccccc3F)n2)cc1 | 239 to 240
67 | CCCN(c1ccncc1)n1ccc2cc(OC(=O)NC(C)C)ccc21 | 131 to 133
68 | C[C@@H](CO)CCC[C@@H](C)[C@H]1C(=O)C[C@H]2[C@@H]3CC=C4C[C@@H](O)CC[C@]4(C)[C@H]3CC[C@]12C | 167 to 169
69 | OCCN(CCc1ccccc1)C(=S)NCCCc1ccncc1 | 106 to 107
70 | OC(c1ccccc1)c1cc2ccncc2[nH]1 (centres undefined) | 178 to 180
71 | O=C(NCCc1ccccc1)Nc1ccc2ncc(Br)cc2n1 | 245 to 246
72 | CCOC(=O)CCCCCNS(=O)(=O)c1ccc(Cl)cc1 | 102 to 105
73 | Cc1nc(-c2ccc(C#N)cc2)sc1C(=O)O | 235 to 250
74 | Cc1cccc(C(=O)NC(C)C)c1[N+](=O)[O-] | 126 to 128
75 | COc1cc(Cl)cc(CO)c1Cl | 58 to 64
76 | Cc1ccc(-c2nc(COc3ccc(CCCn4ccnc4)cc3)co2)s1 | 83 to 84

Row | SMILES | melting point [°C]
77 | O=c1[nH][nH]c(=O)c2c(O)c3c(Cl)c(Cl)c(Cl)cc3nc12 | 123 to 124
78 | CC1(C)OC(=O)Nc2ccc(-c3cccc(Cl)c3)cc21 | 158 to 159
79 | COc1ccccc1CC(C)NCC(O)c1cccc(Cl)c1 (centres undefined) | 85 to 87
80 | Cc1noc(NS(=O)(=O)c2ccsc2C(N)=O)c1Br | 168 to 170
81 | Nc1c([N+](=O)[O-])cc([N+](=O)[O-])c2c1CCCC2 | 175 to 176
82 | O=C(Oc1ccccc1)C1c2ccccc2Oc2ccc(O)cc21 (centres undefined) | 182 to 184
83 | O=C1CCC(c2ccccc2)(c2ccccc2)C2CN(C(Cc3ccccc3)=NC(c3ccccc3)c3ccccc3)CC12 (centres undefined) | 172
84 | O=C(CCCC(=O)c1ccccc1)NC1CCN(Cc2ccc(Cl)c(Cl)c2)CC1 | 130
85 | COCOC(C(Cc1ccccc1)NC(=O)[C@@H](NC(=O)OCc1ccccc1)C(C)C)C(Cc1ccccc1)NC(=O)[C@@H](NC(=O)OCc1ccccc1)C(C)C (some centres undefined) | 197 to 198
86 | OCCCc1cnoc1-c1ccc(Cl)c(Cl)c1 | 66 to 67
87 | OC1CSC(Oc2ccc(-c3cncc(F)c3)nc2)C(O)C1O (centres undefined) | 207 to 217
88 | Nc1cc(C(=O)c2cccc(C(=O)c3ccc(Cl)c(N)c3)c2)ccc1Cl | 209
89 | CSc1c(CC(=O)O)ccc2c3ccccc3n(Cc3ccc(F)cc3)c12 | 156 to 157
90 | C=C(Sc1ccc(Br)cc1)S(=O)(=O)c1ccc(Cl)cc1 | 45 to 95
91 | O=C(CCCCl)c1ccc2c(c1)Cc1cc(C(=O)CCCCl)ccc1-2 | 172 to 175
92 | CN(Cc1ccc(NC(=O)C2=Cc3cc(-c4ccc(S(C)(=O)=O)cc4)ccc3OCC2)cc1)C1CCOCC1 | 233 to 235
93 | CCCCCCCCCC(=O)Nc1ccccc1 | 65 to 66
94 | CCOc1ccc(-c2ccc3c(c2)C=C(C(=O)Nc2ccc(CO)cc2)CCO3)cc1 | 208 to 210
95 | CC(C)(C)C(C)(O)C(Cn1cncn1)Oc1ccc(Cl)cc1 (centres undefined) | 150
96 | COC(=O)c1ccc(C(=O)c2cccc3ccccc23)n1C | 80
97 | O=C(O)c1ccc(-c2ccc(Cl)cc2)c(O)c1 | 199
98 | CCC(O)(C(=O)c1ccccc1)c1ccccc1 (centres undefined) | 62 to 68
99 | CC(C)c1c(/C=C/C=O)c(-c2ccccc2)c2c3ccccc3cnn12 | 162 to 164
